Counter-ions that a name gives are not always drawn. Like-named read-outs stand apart in the source and are kept apart here.
What was measured:
Assay type in all cases: cell-based
[1] = tested on: E. coli clinical isolate (strain 1); assay: MIC by broth microdilution (alone and in combination with meropenam), strain 1; settings: Escherichia coli, compound alone
Experimental: (§1) Compounds of the present invention alone, meropenam (MER) alone, and as a combination with test antibiotic (meropenam) were tested for antimicrobial activity by determing minimum inhibitory concentration (MIC, mg/L) using the broth microdilution method according to the guidelines of the Clinical Laboratories and Stansards Insitute (“Methods for Dilution Antimicrobial Suscetibility Tests for Bacterial that Grow Aerobiclly”, Approved standard, […]., Clinical and Laboratories Stanards Institute (CLSI) Document M7-A8, Wayne, Pa., USA, 2009). Meropenam as a test antibiotic compound was dissolved in DMSO. Meropenam was then diluted in microbial growth medium (Mueller-Hinton Broth II, cation adjusted) resulting in a final concention range of 0.125-64 mg/L in serial two-fold dilution. In all cases the filnal DMSO concentraion was less than 0.5%. Bacteria were added to 96-well microtitre plates containing the serial two-fold dilutions of the compoumds; the final cell density was appoximately 5x10^5 colony forming units/mL (CFU/mL). Plates were incubated at 37° C. for 18-24 hours and read visually. The MIC, i.e. the lowest concentration of the test compound that inhibited visible growth of the bacteria, was recorded. The same assay conditions were used when the compounds of present invention alone, and as a combination with test meropenam antibiotic compound was tested for minmum inhibitory concentration (MIC, mg/L). Whileest meropenam was serially diluted as descrribed above, a constant concentration of the present invention of 4 µg/mL was used.
(§2) Bacterial strains that were used to evaluate the antimicrobial activity using the MIC determination included but were not limited to E. coli clinical isolate (strain 1), E. coli 8739 (strain 2), K. pneumoniae clinical isolate (strain 3), K. pneumoniae 700603 (strain 4), E. cloacae clinical isolate (strain 5), E. cloacae 700323 (strain 6), A. baumannii clinical isolate (strain 7), A. baumannii 19606 (strain 8), P. aeruginosa clinical isolate (strain 9), P. aeruginosa 9027 (strain 10).

[2] = tested on: E. coli 8739 (strain 2); assay: MIC by broth microdilution (alone and in combination with meropenam), strain 2; settings: Escherichia coli, compound alone
Experimental: as §1, §2

[3] = tested on: K. pneumoniae clinical isolate (strain 3); assay: MIC by broth microdilution (alone and in combination with meropenam), strain 3; settings: Klebsiella pneumoniae, compound alone
Experimental: as §1, §2

[4] = tested on: K. pneumoniae 700603 (strain 4); assay: MIC by broth microdilution (alone and in combination with meropenam), strain 4; settings: Klebsiella pneumoniae, compound alone
Experimental: as §1, §2

[5] = tested on: E. cloacae clinical isolate (strain 5); assay: MIC by broth microdilution (alone and in combination with meropenam), strain 5; settings: Enterobacter cloacae, compound alone
Experimental: as §1, §2

[6] = tested on: E. cloacae 700323 (strain 6); assay: MIC by broth microdilution (alone and in combination with meropenam), strain 6; settings: Enterobacter cloacae, compound alone
Experimental: as §1, §2

[7] = tested on: A. baumannii clinical isolate (strain 7); assay: MIC by broth microdilution (alone and in combination with meropenam), strain 7; settings: Acinetobacter baumannii, compound alone
Experimental: as §1, §2

[8] = tested on: A. baumannii 19606 (strain 8); assay: MIC by broth microdilution (alone and in combination with meropenam), strain 8; settings: Acinetobacter baumannii, compound alone
Experimental: as §1, §2

[9] = tested on: P. aeruginosa clinical isolate (strain 9); assay: MIC by broth microdilution (alone and in combination with meropenam), strain 9; settings: Pseudomonas aeruginosa, compound alone
Experimental: as §1, §2

[10] = tested on: P. aeruginosa 9027 (strain 10); assay: MIC by broth microdilution (alone and in combination with meropenam), strain 10; settings: Pseudomonas aeruginosa, compound alone
Experimental: as §1, §2

[11] = read-out: MIC, antibacterial activity of example alone

Measured: MIC

N=C(N)NCCC(=O)NC(=N)[C@@H]1CC[C@@H]2CN1C(=O)N2OS(=O)(=O)O [Ex.51, (2S,5R)-2-(N-(3-guanidinopropanoyl)carbamimidoyl)-7-oxo-1,6-diazabicyclo[3.2.1]octan-6-yl Hydrogen Sulfate]
> 64 µg/mL: [1]; read-out: MIC | [2]; read-out: MIC | [3]; read-out: MIC | [4]; read-out: MIC | [5]; read-out: MIC | [6]; read-out: MIC | [7]; read-out: MIC | [8]; read-out: MIC | [9]; read-out: MIC | [10]; read-out: MIC

CN1CCN(CC(=O)NC(=N)[C@@H]2CC[C@@H]3CN2C(=O)N3OS(=O)(=O)[O-])CC1.[Na+] [Ex.42, Sodium (2S,5R)-2-(N-(2-(4-methylpiperazin-1-yl)acetyl)carbamimidoyl)-7-oxo-1,6-diazabicyclo[3.2.1]octan-6-yl Sulfate]
> 64 µg/mL: [1]; [11] | [2]; [11] | [3]; [11] | [4]; [11] | [5]; [11] | [6]; [11] | [7]; [11] | [8]; [11] | [9]; [11] | [10]; [11]

CC(=O)N1CC[C@@H](C(=O)NC(=N)[C@@H]2CC[C@@H]3CN2C(=O)N3OS(=O)(=O)O)C1 [Ex.31, Sodium (2S,5R)-2-(N-((R)-1-acetylpyrrolidine-3-carbonyl)carbamimidoyl)-7-oxo-1,6-diazabicyclo[3.2.1]octan-6-yl Sulfate]
> 64 µg/mL: [1]; [11] | [2]; [11] | [3]; [11] | [4]; [11] | [5]; [11] | [6]; [11] | [7]; [11] | [8]; [11] | [9]; [11] | [10]; [11]

N=C(NC(=O)c1ccc(F)cc1)[C@@H]1CC[C@@H]2CN1C(=O)N2OS(=O)(=O)O [Ex.17, (2S,5R)-2-(N-(4-fluorobenzoyl)carbamimidoyl)-7-oxo-1,6-diazabicyclo[3.2.1]octan-6-yl Hydrogen Sulfate]
> 64 µg/mL: [1]; [11] | [2]; [11] | [3]; [11] | [4]; [11] | [5]; [11] | [6]; [11] | [7]; [11] | [8]; [11] | [9]; [11] | [10]; [11]

N=C(NC(=O)CCN)[C@@H]1CC[C@@H]2CN1C(=O)N2OS(=O)(=O)[O-].[Na+] [Ex.11, Sodium (2S,5R)-2-(N-(3-aminopropanoyl)carbamimidoyl)-7-oxo-1,6-diazabicyclo[3.2.1]octan-6-yl Sulfate]
> 64 µg/mL: [1]; [11] | [2]; [11] | [3]; [11] | [4]; [11] | [5]; [11] | [6]; [11] | [7]; [11] | [8]; [11] | [9]; [11] | [10]; [11]

N=C(NC(=O)C1CCCN=N1)[C@@H]1CC[C@@H]2CN1C(=O)N2OS(=O)(=O)[O-].[Na+] (stereo partly drawn) [Ex.52, Sodium (2S,5R)-7-oxo-2-(N-(3,4,5,6-tetrahydropyridazine-3-carbonyl)carbamimidoyl)-1,6-diazabicyclo[3.2.1]octan-6-yl Sulfate]
> 64 µg/mL: [1]; read-out: MIC | [2]; read-out: MIC | [3]; read-out: MIC | [4]; read-out: MIC | [5]; read-out: MIC | [6]; read-out: MIC | [7]; read-out: MIC | [8]; read-out: MIC | [9]; read-out: MIC | [10]; read-out: MIC

CN1CCC[C@@H](C(=O)NC(=N)[C@@H]2CC[C@@H]3CN2C(=O)N3OS(=O)(=O)[O-])C1.[Na+] [Ex.29, Sodium (2S,5R)-2-(N-((R)-1-methylpiperidine-3-carbonyl)carbamimidoyl)-7-oxo-1,6-diazabicyclo[3.2.1]octan-6-yl Sulfate]
> 64 µg/mL: [1]; [11] | [2]; [11] | [3]; [11] | [4]; [11] | [5]; [11] | [6]; [11] | [7]; [11] | [8]; [11] | [9]; [11] | [10]; [11]

CC(C)(C)OC(=O)N1CCC(C(=O)NC(=N)[C@@H]2CC[C@@H]3CN2C(=O)N3OS(=O)(=O)[O-])CC1.[Na+] [Ex.14, Sodium (2S,5R)-2-(N-(1-(tert-butoxycarbonyl)piperidine-4-carbonyl)carbamimidoyl)-7-oxo-1,6-diazabicyclo[3.2.1]octan-6-yl Sulfate]
> 64 µg/mL: [1]; [11] | [2]; [11] | [3]; [11] | [4]; [11] | [5]; [11] | [6]; [11] | [7]; [11] | [8]; [11] | [9]; [11] | [10]; [11]

N=C(NC(=O)CC1CCOCC1)[C@@H]1CC[C@@H]2CN1C(=O)N2OS(=O)(=O)[O-].[Na+] [Ex.38, Sodium (2S,5R)-7-oxo-2-(N-(2-(tetrahydro-2H-pyran-4-yl)acetyl)carbamimidoyl)-1,6-diazabicyclo[3.2.1]octan-6-yl Sulfate]
> 64 µg/mL: [1]; [11] | [2]; [11] | [3]; [11] | [4]; [11] | [5]; [11] | [6]; [11] | [7]; [11] | [8]; [11] | [9]; [11] | [10]; [11]

N=C(NC(=O)CC1CCCCC1)[C@@H]1CC[C@@H]2CN1C(=O)N2OS(=O)(=O)[O-].[Na+] [Ex.36, Sodium (2S,5R)-2-(N-(2-cyclohexylacetyl)carbamimidoyl)-7-oxo-1,6-diazabicyclo[3.2.1]octan-6-yl Sulfate]
> 64 µg/mL: [1]; [11] | [2]; [11] | [3]; [11] | [4]; [11] | [5]; [11] | [6]; [11] | [7]; [11] | [8]; [11] | [9]; [11] | [10]; [11]

N=C(NC(=O)CCc1ccccn1)[C@@H]1CC[C@@H]2CN1C(=O)N2OS(=O)(=O)[O-].[Na+] [Ex.13, Sodium (2S,5R)-7-oxo-2-(N-(3-(pyridin-2-yl)propanoyl)carbamimidoyl)-1,6-diazabicyclo[3.2.1]octan-6-yl Sulfate]
> 64 µg/mL: [1]; [11] | [2]; [11] | [3]; [11] | [4]; [11] | [5]; [11] | [6]; [11] | [7]; [11] | [8]; [11] | [9]; [11] | [10]; [11]

N=C(NC(=O)c1csc(C(F)(F)F)n1)[C@@H]1CC[C@@H]2CN1C(=O)N2OS(=O)(=O)[O-].[Na+] [Ex.24, Sodium (2S,5R)-7-oxo-2-(N-(2-(trifluoromethyl)thiazole-4-carbonyl)carbamimidoyl)-1,6-diazabicyclo[3.2.1]octan-6-yl Sulfate]
> 64 µg/mL: [1]; [11] | [2]; [11] | [3]; [11] | [4]; [11] | [5]; [11] | [6]; [11] | [7]; [11] | [8]; [11] | [9]; [11] | [10]; [11]

N=C(NC(=O)c1ccco1)[C@@H]1CC[C@@H]2CN1C(=O)N2OS(=O)(=O)O [Ex.1, (2S,5R)-2-(N-(furan-2-carbonyl)carbamimidoyl)-7-oxo-1,6-diazabicyclo[3.2.1]octan-6-yl Hydrogen Sulfate]
> 64 µg/mL: [1]; [11] | [2]; [11] | [3]; [11] | [4]; [11] | [5]; [11] | [6]; [11] | [7]; [11] | [8]; [11] | [9]; [11] | [10]; [11]

N=C(NC(=O)CN)[C@@H]1CC[C@@H]2CN1C(=O)N2OS(=O)(=O)[O-].[Na+] [Ex.15, Sodium (2S,5R)-2-(N-glycylcarbamimidoyl)-7-oxo-1,6-diazabicyclo[3.2.1]octan-6-yl Sulfate]
> 64 µg/mL: [1]; [11] | [2]; [11] | [3]; [11] | [4]; [11] | [5]; [11] | [6]; [11] | [7]; [11] | [8]; [11] | [9]; [11] | [10]; [11]

Reference: patent publication US20230365561A1, “BETA-LACTAMASE INHIBITORS AND THEIR PREPARATION” (NINGXIA ACADEMY OF AGRICUL TURE AND FORESTRY SCIENCES, priority 2020, published 2023)
